“And” between values parts separate entries of the source, which are not always exact repeats. Identical values can stand only once.
What was measured:
Lp-PLA2 [1] = target: T1, Lp-PLA2 (Homo sapiens, UniProt Q13093); experiment: Auto PAF AH assay (Azwell kit, Olympus Au640 analyzer); format: biochemical; details: plasma of individual human subjects
T1 sequence (Q13093 22-441): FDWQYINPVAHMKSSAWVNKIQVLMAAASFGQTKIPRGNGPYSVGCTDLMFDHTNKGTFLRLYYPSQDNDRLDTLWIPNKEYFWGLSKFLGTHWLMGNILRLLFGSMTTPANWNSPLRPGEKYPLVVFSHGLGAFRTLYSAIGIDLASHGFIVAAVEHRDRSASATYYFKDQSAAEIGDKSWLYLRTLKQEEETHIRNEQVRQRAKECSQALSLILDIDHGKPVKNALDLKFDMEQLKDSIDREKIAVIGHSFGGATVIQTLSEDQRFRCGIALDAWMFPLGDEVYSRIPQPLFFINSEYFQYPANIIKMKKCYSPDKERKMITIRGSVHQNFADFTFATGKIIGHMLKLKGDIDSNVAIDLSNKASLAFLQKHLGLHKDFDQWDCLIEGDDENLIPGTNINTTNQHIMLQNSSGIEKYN
Method: The Auto PAF AH assay kit, manufactured by Azwell (Osaka, Japan), is commercially available in the United States through Karlan Research Products Corporation (Santa Rosa, Calif.).
Prepare the following reagents: • R1: Use this buffer solution as supplied in Azwell Auto PAF AH assay kit. Store at 4° C. Protect from light. • R2: Prepare the R2 working solution by mixing R2A and R2B (supplied in Azwell Auto PAF AH assay kit) in the proportion of 19:1, Store at 4° C. Protect from light. • 3. […] Briefly centrifuge to spin down fibrin clots/particles in the plasma. • 4. Place Sarstedt tubes containing plasma samples onto sample tubes that fit the instrument. Run plasma samples through the Au640 analyzer. After choosing the PAF AH assay program, the analytical procedure described below is performed automatically: • Test sample (2 μL)+R1 (240 μL), 37° C., 5 minutes [0-5 minutes] • Add R2 (80 μL), 37° C., 5 minutes [5-10 minutes] • Measure the absorbance at 410 nm and 480 nm [6-8 minutes] • Calculate PAF AH activity (IU/L) • 5.

Lp-PLA2 [2] = target: T1, Lp-PLA2; experiment: Modified drug-sensitive colorimetric assay, plasma; format: biochemical; details: plasma of individual human subjects
From the text: Assay Procedure • 1. […] Use duplicates for each sample. • 4.
Pre-dose plasma samples for each subject on day 0 of the study were also available.

`COCCN1CCC(N(Cc2ccc(-c3ccc(C(F)(F)F)cc3)cc2)C(=O)Cn2c(SCc3cccc(F)c3F)cc(=O)c3ccccc32)CC1` [Formula I] was tested, and the “Lp-PLA2 Activity Auto PAF AH” value (Lp-PLA2 [1]; 50 mg, 6 hr after dosing) was 273.50 nmol/min/mL and 642.00 nmol/min/mL and 388.50 nmol/min/mL and 306.50 nmol/min/mL and 325.00 nmol/min/mL, the “% Inhibition Auto PAF AH” value (Lp-PLA2 [1]; 50 mg, 9 hr after dosing) was 6.23% and 18.76% and 12.99% and 6.61% and 15.33% and the “% Inhibition Auto PAF AH” value (Lp-PLA2 [1]; 50 mg, 12 hr after dosing) was 14.26% and 18.76% and −8.39%. For the same compound, the “Lp-PLA2 Activity Auto PAF AH” value (Lp-PLA2 [1]; 50 mg, 12 hr after dosing) was 261.50 nmol/min/mL and 409.50 nmol/min/mL and 336.00 nmol/min/mL and 307.00 nmol/min/mL, the “% Inhibition Auto PAF AH” value (Lp-PLA2 [1]; 120 mg, 0.5 hr after dosing) was 15.42% and 8.74% and 9.58% and 6.66% and the “% Inhibition Auto PAF AH” value (Lp-PLA2 [1]; 120 mg, 1 hr after dosing) was 11.34% and 7.73%. For the same compound, the “% Inhibition Auto PAF AH” value (Lp-PLA2 [1]; 120 mg, 2 hr after dosing) was 18.04% and 21.33% and 8.63% and 18.61% and 21.05%, the “% Inhibition Auto PAF AH” value (Lp-PLA2 [1]; 120 mg, 3 hr after dosing) was 12.42% and 16.24% and 5.90% and 14.65% and the “% Inhibition Auto PAF AH” value (Lp-PLA2 [1]; 120 mg, 5 hr after dosing) was −1.63% and 5.62%. For the same compound, the “Lp-PLA2 Activity Auto PAF AH” value (Lp-PLA2 [1]; 120 mg, 5 hr after dosing) was 353.50 nmol/min/mL and 748.00 nmol/min/mL and 416.00 nmol/min/mL and 428.50 nmol/min/mL and 377.00 nmol/min/mL, the “% Inhibition Auto PAF AH” value (Lp-PLA2 [1]; 120 mg, 6 hr after dosing) was 13.73% and 2.99% and 6.47% and the “Lp-PLA2 Activity Auto PAF AH” value (Lp-PLA2 [1]; 120 mg, 6 hr after dosing) was 330.00 nmol/min/mL and 714.00 nmol/min/mL and 412.00 nmol/min/mL and 393.00 nmol/min/mL and 366.00 nmol/min/mL. The “% Inhibition Auto PAF AH” value (Lp-PLA2 [1]; 120 mg, 9 hr after dosing) was 11.63%, the “% Inhibition Auto PAF AH” value (Lp-PLA2 [1]; 120 mg, 12 hr after dosing) was 7.06% and −3.52% and the “% Inhibition Drug-Sensitive Colorimetric” value (Lp-PLA2 [2]; 50 mg, 0.5 hr after dosing) was 16.91% and 18.69% and 26.95%. For the same compound, the “Lp-PLA2 Activity Drug-Sensitive Colorimetric” value (Lp-PLA2 [2]; 50 mg, 0.5 hr after dosing) was 89.99 nmol/min/mL and 69.79 nmol/min/mL and 81.70 nmol/min/mL and 32.96 nmol/min/mL and 141.14 nmol/min/mL, the “Lp-PLA2 Activity Drug-Sensitive Colorimetric” value (Lp-PLA2 [2]; 50 mg, 1 hr after dosing) was 17.15 nmol/min/mL and 39.10 nmol/min/mL and 24.96 nmol/min/mL and 22.46 nmol/min/mL and 37.07 nmol/min/mL and the “% Inhibition Drug-Sensitive Colorimetric” value (Lp-PLA2 [2]; 50 mg, 4 hr after dosing) was 85.71%. For the same compound, the “Lp-PLA2 Activity Drug-Sensitive Colorimetric” value (Lp-PLA2 [2]; 50 mg, 5 hr after dosing) was 20.74 nmol/min/mL and 31.77 nmol/min/mL and 16.58 nmol/min/mL and 15.83 nmol/min/mL and 18.35 nmol/min/mL, the “Lp-PLA2 Activity Drug-Sensitive Colorimetric” value (Lp-PLA2 [2]; 50 mg, 6 hr after dosing) was 23.71 nmol/min/mL and 66.08 nmol/min/mL and 21.01 nmol/min/mL and 25.84 nmol/min/mL and 25.12 nmol/min/mL and the “% Inhibition Drug-Sensitive Colorimetric” value (Lp-PLA2 [2]; 50 mg, 12 hr after dosing) was 60.73% and 36.04% and 55.61%. The “Lp-PLA2 Activity Drug-Sensitive Colorimetric” value (Lp-PLA2 [2]; 50 mg, 12 hr after dosing) was 34.83 nmol/min/mL and 76.84 nmol/min/mL and 111.00 nmol/min/mL and 53.72 nmol/min/mL and 44.60 nmol/min/mL, the “% Inhibition Drug-Sensitive Colorimetric” value (Lp-PLA2 [2]; 120 mg, 0.5 hr after dosing) was 88.89% and 85.22% and 45.29% and 41.39% and the “Lp-PLA2 Activity Drug-Sensitive Colorimetric” value (Lp-PLA2 [2]; 120 mg, 0.5 hr after dosing) was 31.08 nmol/min/mL and 20.14 nmol/min/mL and 19.87 nmol/min/mL and 63.95 nmol/min/mL and 64.40 nmol/min/mL. The “% Inhibition Drug-Sensitive Colorimetric” value (Lp-PLA2 [2]; 120 mg, 1 hr after dosing) was 88.85%, the “Lp-PLA2 Activity Drug-Sensitive Colorimetric” value (Lp-PLA2 [2]; 120 mg, 1 hr after dosing) was 19.69 nmol/min/mL and 23.29 nmol/min/mL and 14.99 nmol/min/mL and 30.22 nmol/min/mL and 18.74 nmol/min/mL and the “Lp-PLA2 Activity Drug-Sensitive Colorimetric” value (Lp-PLA2 [2]; 120 mg, 2 hr after dosing) was 19.69 nmol/min/mL and 19.54 nmol/min/mL and 12.22 nmol/min/mL and 29.51 nmol/min/mL and 10.11 nmol/min/mL. For the same compound, the “Lp-PLA2 Activity Drug-Sensitive Colorimetric” value (Lp-PLA2 [2]; 120 mg, 3 hr after dosing) was 13.17 nmol/min/mL and 20.61 nmol/min/mL and 15.08 nmol/min/mL and 30.49 nmol/min/mL and 11.51 nmol/min/mL, the “Lp-PLA2 Activity Drug-Sensitive Colorimetric” value (Lp-PLA2 [2]; 120 mg, 4 hr after dosing) was 7.30 nmol/min/mL and 21.27 nmol/min/mL and 16.18 nmol/min/mL and 29.42 nmol/min/mL and 11.21 nmol/min/mL and the “Lp-PLA2 Activity Drug-Sensitive Colorimetric” value (Lp-PLA2 [2]; 120 mg, 5 hr after dosing) was 22.94 nmol/min/mL and 21.36 nmol/min/mL and 18.14 nmol/min/mL and 35.46 nmol/min/mL and 12.22 nmol/min/mL. The “Lp-PLA2 Activity Drug-Sensitive Colorimetric” value (Lp-PLA2 [2]; 120 mg, 6 hr after dosing) was 20.65 nmol/min/mL and 21.39 nmol/min/mL and 18.74 nmol/min/mL and 39.29 nmol/min/mL and 17.01 nmol/min/mL and the “Lp-PLA2 Activity Drug-Sensitive Colorimetric” value (Lp-PLA2 [2]; 120 mg, 9 hr after dosing) was 27.16 nmol/min/mL and 27.87 nmol/min/mL and 26.18 nmol/min/mL and 50.81 nmol/min/mL and 21.03 nmol/min/mL.
